Laboratory results reported in paper PMC6331910, “The Curcumin Analogue 1,5-Bis(2-hydroxyphenyl)-1,4-pentadiene-3-one Induces Apoptosis and Downregulates E6 and E7 Oncogene Expression in HPV16 and HPV18-Infected Cervical Cancer Cells” (Molecules, 2015).
Read-outs that look alike come from different tables or passages of the source.

Key:
[1] = system: CaSki; assay: MTT anti-proliferative (time-dependent) assay, 24, 48 and 72 h; type: cell-based, human; settings: for concentration from which a notable decline in cell viability was caused / effect on cell viability: at 24, 48 and 72 h; for cell viability: 6.3–100 μM
Procedure: (§1) HeLa, CaSki and MRC9 cells were plated in triplicate wells in 96-well flat-bottomed tissue culture plates (Nunc, Roskilde, Denmark) with 10^5 cells per mL in 100 μL culture media with working concentrations of diarylpentanoid treatment ranging from 1.6 to 100 μM. Control-treated wells contained cells incubated in media with equal volumes of DMSO (0.2%). Cells were treated for 72 h for dose-dependent cytotoxicity assays and at 24, 48 and 72 h for anti-proliferative (time-dependent) assays. In order to assess cell viability and anti-proliferative activity after diarylpentanoid treatment, the colorimetric 3-(4,5-dimethylthiazol-2-yl)-2,5-diphenyltetrazolium bromide (MTT) assay was performed as previously described with modifications. The media was aspirated and cells were incubated in 100 µL complete medium with 0.5 mg/mL MTT solution for 4 h in the dark to allow metabolism of MTT by cellular mitochondrial dehydrogenases. The excess MTT was aspirated and the formazan crystals formed were dissolved by the addition of 100 µL of DMSO. The absorbance of dark blue formazan was read at 570/650 nm wavelengths using a microplate reader (Bio-Rad Benchmark Plus Microplate Spectrophotometer, Hercules, CA, USA). Triplicate absorbance values were averaged and the effect of the compounds on growth inhibition was assessed as percentage cell viability as follows: (1) Percentage cell viability =Absorbance of Test − Absorbance of Blank (media only)/Absorbance of Control − Absorbance of Blank (media only) × 100 where, absorbance = optical density of sample, O.D.; control = untreated sample; test = treated sample.
(§2) An independent set of vehicle-treated (DMSO only) controls were included in the anti-proliferative assays to assess the proliferation of untreated cancer cells over 24, 48 and 72 h. As such, the cell viability at 24 h was used as a baseline to measure proliferation rate at 48 and 72 h. (2) Percentage cell viability = […]/Absorbance of Control (24 h) × Absorbance of Blank (media only) × 100

[2] = system: HeLa; assay: as above; type: cell-based, human; settings: for concentration from which a notable decline in cell viability was caused / cell growth: at 24, 48 and 72 h; for reduction of cell viability: 12.5 μM and above
Procedure: as §1, §2

[3] = system: CaSki; assay: MTT cell viability (dose-dependent cytotoxicity) assay, 72 h; type: cell-based, human; settings: for Selective Index CaSki: EC50 (MRC9)/EC50 (CaSki) × 100; for EC50: read-out: EC50 (Mean ± S.E.M.) CaSki
Procedure: (§3) Control-treated wells contained cells incubated in media with equal volumes of DMSO (0.2%). […] The media was aspirated and cells were incubated in 100 µL complete medium with 0.5 mg/mL MTT solution for 4 h in the dark to allow metabolism of MTT by cellular mitochondrial dehydrogenases. The excess MTT was aspirated and the formazan crystals formed were dissolved by the addition of 100 µL of DMSO. The absorbance of dark blue formazan was read at 570/650 nm wavelengths using a microplate reader (Bio-Rad Benchmark Plus Microplate Spectrophotometer, Hercules, CA, USA). Triplicate absorbance values were averaged and the effect of the compounds on growth inhibition was assessed as percentage cell viability as follows: […] The results were analysed using GraphPad Prism version 6.00 for Windows (GraphPad Software, La Jolla, CA, USA). […] Overall EC50 was determined by taking the average EC50 from three independent experiments.

[4] = system: HeLa; assay: as above; type: cell-based, human; settings: for Selective Index HeLa: EC50 (MRC9)/EC50 (HeLa) × 100; for EC50: read-out: EC50 (Mean ± S.E.M.) HeLa
Procedure: as §3

[5] = system: MRC9; assay: MTT cell viability (cytotoxicity) assay on non-cancerous lung fibroblasts, 72 h; type: cell-based; settings: Homo sapiens, read-out: EC50 (Mean ± S.E.M.) MRC9
Procedure: as §1
The results were analysed using GraphPad Prism version 6.00 for Windows (GraphPad Software, La Jolla, CA, USA). Using percentage cell viability Equation (1), log dose–response curves were constructed, from which the half maximal effective concentration, EC50 for each replicate was determined. Overall EC50 was determined by taking the average EC50 from three independent experiments. […] (3) Selectivity Index (SX) =EC50 (MRC9)/EC50 (Cancer cell line) × 100

[6] = Homo sapiens, Ca-Ski, MTT, 72 h
[7] = MRC9, MTT, 72 h, non-cancerous lung fibroblasts

For COc1cc(/C=C/C(=O)CC(=O)/C=C/c2ccc(O)c(OC)c2)ccc1O [Curcumin], the “concentration from which a notable decline in cell viability was caused” value (from here on “concentration”) [1] was 25 µM, the “effect on cell viability” value ([1]; from 25 μM onwards) was “significant decline in cell viability” and the “concentration” value [2] was 50 µM. For the same compound, the cell growth ([2]; onwards from 50 μM) was “below 50%”, the “Selective Index CaSki” value [3] was 168 and the inhibition at 25 µM ([3]; Homo sapiens, Ca-Ski, CaSki, 25 μM, 72 h, read-out: growth inhibition) was 50%. For the same compound, the EC50 [3, 6] was 15.8 ± 3.1 µM, the “Selective Index HeLa” value [4] was 100 and the EC50 ([4]; Homo sapiens, HeLa, MTT, 72 h) was 26.7 ± 14.3 µM. It also gave an inhibition at 50 µM ([4]; Homo sapiens, HeLa, beginning at 50 μM, 72 h, read-out: growth inhibition) of about 50% and an EC50 [5, 7] of 26.6 ± 3.2 µM.
For COc1cc(C=CC(=O)C=Cc2ccc(O)c(OC)c2)ccc1O [MS13, 1,5-bis(4-hydroxy-3-methoxyphenyl)-1,4-pentadiene-3-one], the “dosage from which reduction in cell viability was significantly higher at 48 and 72 h than at 24 h” value [1] was 6.3 µM, the cell viability ([1]; 48 h) was 21% and the cell viability ([1]; 72 h) was 9%. For the same compound, the viability at 12.5 µM ([1]; Homo sapiens, Ca-Ski, 12.5 μM, 24 h, read-out: decline of cell viability) was about 50%, the “dosage from which reduction in cell viability was significantly higher at 48 and 72 h than at 24 h” value [2] was 12.5 µM and the “reduction of cell viability” value ([2]; 24 h) was 72%. The “reduction of cell viability” value ([2]; 48 h) was “approximately 91%”, the “reduction of cell viability” value ([2]; 72 h) was about 95% and the “decrease in cell growth” value ([3]; CaSki, 3.1 μM, 72 h) was 50%. The “cell growth after treatment” value ([3]; CaSki, 6.3–100 μM, 72 h) was “around 10%”, the “Selective Index CaSki” value [3] was 346 and the EC50 ([3]; Homo sapiens, Ca-Ski, 72 h) was 2.8 ± 0.4 µM. For the same compound, the “Selective Index HeLa” value [4] was 145, the cell viability ([4]; HeLa, beyond 12.5 μM, 72 h) was “less than 10%” and the EC50 ([4]; Homo sapiens, HeLa, 72 h) was 6.7 ± 2.4 µM. For the same compound, the viability at 12.5 µM ([4]; Homo sapiens, HeLa, 12.5 μM, 72 h) was about 12% and the EC50 ([5]; MRC9, 72 h) was 9.7 ± 2.4 µM.
O=C(C=Cc1cccc(F)c1)C=Cc1cccc(F)c1 [MS40E, 1,5-bis(3-fluorophenyl)-1,4-pentadiene-3-one] was tested, and the “effect on cell viability” value ([1]; 12.5 μM onwards) was “significant decline in cell viability”, the “concentration” value [1] was 12.5 µM and the “concentration” value [2] was 25 µM. The cell growth ([2]; onwards from 25 μM) was “below 50%”, the “Selective Index CaSki” value [3] was 906 and the inhibition at 6.3 µM ([3]; Homo sapiens, Ca-Ski, CaSki, 6.3 μM, 72 h, read-out: growth inhibition) was 80%. The inhibition at 100 µM ([3]; Homo sapiens, Ca-Ski, CaSki, 100 μM, 72 h, read-out: growth inhibition) was 90%, the EC50 [3, 6] was 3.5 ± 0.4 µM and the “Selective Index HeLa” value [4] was 204. For the same compound, the EC50 ([4]; Homo sapiens, HeLa, MTT, 72 h) was 15.5 ± 1.9 µM, the inhibition at 25 µM ([4]; Homo sapiens, HeLa, beginning at 25 μM, 72 h, read-out: growth inhibition) was about 75% and the EC50 [5, 7] was 31.7 ± 3.2 µM.
For O=C1C(=Cc2cccc(F)c2)CCCC1=Cc1cccc(F)c1 [MS49, 2,6-bis(3-fluorobenzylidene)cyclohexanone], the “effect on cell viability” value ([1]; 12.5 μM onwards) was “significant decline in cell viability”, the “concentration” value [1] was 12.5 µM and the “concentration” value [2] was 25 µM. The cell growth ([2]; onwards from 25 μM) was “below 50%”, the cell viability ([3]; CaSki, 25–100 μM, 72 h) was “around 10%” and the “Selective Index CaSki” value [3] was 273. For the same compound, the viability at 12.5 µM ([3]; Homo sapiens, Ca-Ski, CaSki, 12.5 μM, 72 h) was 20%, the EC50 [3, 6] was 6 ± 2.9 µM and the “Selective Index HeLa” value [4] was 199. For the same compound, the EC50 ([4]; Homo sapiens, HeLa, MTT, 72 h) was 8.3 ± 4.6 µM, the inhibition at 12.5 µM ([4]; Homo sapiens, HeLa, beginning at 12.5 μM, 72 h, read-out: growth inhibition) was about 75% and the EC50 [5, 7] was 16.4 ± 4.4 µM.
